row,melting point,SMILES
1,149 to 151 °C,COc1ccccc1COc1ccc(S(=O)(=O)c2ccc(C)nc2Nc2cc(OC)c(OC)cc2Cl)cc1
2,173 to 175 °C,O=c1ccc(-c2ccccc2F)n[nH]1
3,114 to 115 °C,CCC(C)(C)OC(=O)N1CCC(c2ccc(COc3ccc(S(C)(=O)=O)cc3)nc2)CC1
4,117 to 119 °C,CCC(CC)N(Cc1ccc(C(=O)OC)cn1)S(=O)(=O)c1ccc(F)cc1
5,185 to 187 °C,Cc1ccc2c(c1)C(C)(Cl)C(=S)N2 (stereo unspecified)
6,213 to 214 °C,CC(C)Cn1c(CNC(=O)OC(C)(C)C)c(-c2ccccc2)c2cc(-c3nc(C(=O)O)cs3)ccc2c1=O
7,120 °C,CC(Cl)(Cl)c1nc2c(C(F)(F)F)cccc2c(=O)o1
8,167 to 169 °C,COc1ccc(C(=O)Nc2ccccc2)cc1NCc1ccccc1C
9,79 to 80 °C,CCOc1ccccc1CNC(=O)c1ccc2cnccc2n1
10,160 to 164 °C,CCOC(=O)c1cc2cc(Cl)c(F)cc2[nH]1
11,244 to 245 °C,Cc1ccnn(-c2cccc(Cl)c2)c1=O
12,149 to 151 °C,O=C(CC(c1ccccc1)c1ccccc1)NCO
13,88 to 89 °C,COc1cc(-c2nc(N)sc2SCC2CCCC2)c(OC)cc1C
14,85 to 86 °C,OCc1nn(Cc2ccccc2)c2ccccc12
15,240 to 243 °C,Cc1n[nH]c(C)c1-c1nn(C(C)c2oc3ccccc3c(=O)c2-c2cccc(F)c2)c2ncnc(N)c12 (stereo unspecified)
16,90 to 92 °C,CCCC(=O)NCCC1=CCc2cc(F)c(OC)cc21
17,172 to 173 °C,FC1(F)CCC(n2ncc3c(Br)cncc32)CC1
18,176 to 178 °C,Cc1ccc2cccc(OCc3cc(N)ccc3Cl)c2n1
19,175 to 176 °C,Cc1nc(N2CCC(Cc3ccc(C(F)(F)F)cc3)C2=O)sc1C(=O)NCc1ccc(F)cc1 (stereo unspecified)
20,138 to 139 °C,CC1(C)OC(=O)Nc2ccc(OCCCCS(=O)c3ccc(Cl)c(Cl)c3)cc21 (stereo unspecified)
21,146 to 148 °C,NS(=O)(=O)c1ccc(S(=O)(=O)NCc2cccs2)s1

row,melting point,SMILES
1,142 to 143 °C,O=C1c2ccc([N+](=O)[O-])cc2C(=O)N1CCc1ccccc1
2,159 to 160 °C,COC(=O)C(=Cc1c[nH]c2cc(Cl)ccc12)[N+](=O)[O-]
3,77 to 79 °C,COC1(c2ccc(C#Cc3cc(F)cc(F)c3NC(=O)C(C)(C)C)cc2)CCOCC1
4,84 to 87 °C,COC(=O)C(Cc1ccc(OCCn2c(=O)oc3cc(C(O)c4ccccc4)ccc32)cc1)C(=O)OC (stereo unspecified)
5,44 to 45.5 °C,C/C=C(\Br)C(=O)Nc1cccc(F)c1
6,99 to 100 °C,CCc1nc(NC)nc2c1ncn2C1CC(F)C(CO)O1 (stereo unspecified)
7,154 °C,COc1cc(-c2nc3ccccc3n2Cc2ccccc2F)cc(OC)c1OC
8,149 °C,O=S(Cc1cc(OCc2ccc(C(F)(F)F)cc2)ccn1)c1nc2cscc2[nH]1 (stereo unspecified)
9,179 to 180 °C,O=C1N(N(c2ccccc2)c2ccccc2)c2ccccc2C1(Cc1ccnc(F)c1)Cc1ccnc(F)c1
10,207 to 208 °C,O=Cc1c(Cl)n(C2OC(CF)C(O)C2O)c2cc(Cl)c(Cl)cc12 (stereo unspecified)
11,177 to 179 °C,ON=C1CCCc2cc(OCCn3ccnc3)ccc21
12,294 to 297 °C,COc1ccc(Br)cc1-c1nc(N)nc(N)n1
13,136 to 137 °C,COc1ccc(CSc2nnc(-c3ccc4c(c3)CCO4)o2)cc1Cl
14,151 to 152 °C,COc1ccc(CC(=O)c2ccc(OC)c(F)c2)cc1F
15,195 to 203 °C,CCn1c(N)nc(N2CCc3ccccc3CC2)c(C#N)c1=O
16,217 °C,Cc1cc(-c2ccc(C(F)(F)F)cc2)cc(-c2ccnc(-c3ccnc(N)c3)n2)n1
17,142 to 143 °C,O=S(=O)(Nc1ccc(Oc2ccc3ncccc3c2)cc1)c1cccc(C(F)(F)F)c1
18,227 °C,NS(=O)(=O)c1ccc(CCI)cc1
19,169 to 172 °C,COc1nc2ccc(Br)cc2cc1C#N
20,50 to 52 °C,O=C(CC(=O)C1CCCCC1)C1CCCCC1

# From a melting point compilation (Tetko et al.; mined from patent text by program, amines drawn as free bases though some values may be those of a salt)
